The source of these data is patent US20250041206A1, “Injectable Suspensions” (ASARINA PHARMA AB, priority 2017, published 2025).

The nature of the data set: Recovered dose from pre-filled syringes emptied through 27G needle after storage, not resuspended (gas chromatography). Conditions: suspension in pre-filled syringes during storage. The data set is classed as physicochemical. The method, then:
Filling weight was 0.5 g with the suspension having a density of about 0.95 g/mL.
The syringes were stored horisontally at 5° C., 25° C./60% RH and 40° C./75% RH, respectively, for up to twelve months. […] The syringes were taken directly from storage and not resuspended, mixed or shaken before ejection and assaying.

Structures are written as SMILES.

`CC(=O)[C@H]1CC[C@H]2[C@@H]3CC[C@H]4C[C@@H](O)CC[C@]4(C)[C@H]3CC[C@]12C` [3-beta-hydroxy-5-alpha-pregnan-20-one]: the “Primary particle size during storage” value was “remained unchanged”.
